The target of data set [1] is T1, PDE4D2 (Homo sapiens, UniProt Q08499).
T1 construct: purchased Eurofins Discovery (Cerep) BioPrint Profile Panel
Nature of the data set: BioPrint Profile Panel. The note with it: Non-Kinase Enzyme, read-out: % of specific inhibition. In kind it is biochemical. An excerpt:
(§1) The BioPrint® Profile Panel service offered by Eurofins Discovery (Poitiers, France) was chosen to perform selectivity analysis.

In data set [2] the test system is Guanylyl cyclase. In words: BioPrint Profile Panel. In kind it is biochemical. As to conditions: 10 μM; Activator effect.
Description: as §1

The target in data set [3] is T2, IRK (Homo sapiens, UniProt P06213).
T2 construct: purchased Eurofins Discovery (Cerep) BioPrint Profile Panel
Nature of the data set: BioPrint Profile Panel. The data set is classed as biochemical. As to conditions: Kinase, read-out: % of specific inhibition.
Description: as §1

For data set [4], the target named is T3, MMP-1 (Homo sapiens, UniProt P03956).
T3 construct: purchased Eurofins Discovery (Cerep) BioPrint Profile Panel
T3 sequence (P03956 100-469): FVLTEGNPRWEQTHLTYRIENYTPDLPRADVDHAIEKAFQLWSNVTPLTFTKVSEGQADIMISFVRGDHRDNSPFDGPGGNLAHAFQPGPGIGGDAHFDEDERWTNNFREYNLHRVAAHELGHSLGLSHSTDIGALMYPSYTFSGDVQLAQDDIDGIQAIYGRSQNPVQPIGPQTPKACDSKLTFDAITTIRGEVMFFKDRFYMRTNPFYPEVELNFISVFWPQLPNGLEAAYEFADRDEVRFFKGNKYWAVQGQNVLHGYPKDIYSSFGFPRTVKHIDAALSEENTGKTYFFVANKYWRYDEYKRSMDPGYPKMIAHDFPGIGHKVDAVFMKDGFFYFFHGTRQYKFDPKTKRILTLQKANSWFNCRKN
Nature of the data set: BioPrint Profile Panel. The data set is classed as biochemical. As to conditions: Non-Kinase Enzyme, read-out: % of specific inhibition.
Description: as §1

Data set [5] addresses T4, caspase-3 (Homo sapiens, UniProt P42574).
T4 construct: purchased Eurofins Discovery (Cerep) BioPrint Profile Panel
In words: BioPrint Profile Panel. In kind it is biochemical. The note with it: Non-Kinase Enzyme, read-out: % of specific inhibition.
Description: as §1

The target of data set [6] is T5, ACE-2 (Homo sapiens, UniProt Q9BYF1).
T5 construct: purchased Eurofins Discovery (Cerep) BioPrint Profile Panel
T5 sequence (Q9BYF1 18-805): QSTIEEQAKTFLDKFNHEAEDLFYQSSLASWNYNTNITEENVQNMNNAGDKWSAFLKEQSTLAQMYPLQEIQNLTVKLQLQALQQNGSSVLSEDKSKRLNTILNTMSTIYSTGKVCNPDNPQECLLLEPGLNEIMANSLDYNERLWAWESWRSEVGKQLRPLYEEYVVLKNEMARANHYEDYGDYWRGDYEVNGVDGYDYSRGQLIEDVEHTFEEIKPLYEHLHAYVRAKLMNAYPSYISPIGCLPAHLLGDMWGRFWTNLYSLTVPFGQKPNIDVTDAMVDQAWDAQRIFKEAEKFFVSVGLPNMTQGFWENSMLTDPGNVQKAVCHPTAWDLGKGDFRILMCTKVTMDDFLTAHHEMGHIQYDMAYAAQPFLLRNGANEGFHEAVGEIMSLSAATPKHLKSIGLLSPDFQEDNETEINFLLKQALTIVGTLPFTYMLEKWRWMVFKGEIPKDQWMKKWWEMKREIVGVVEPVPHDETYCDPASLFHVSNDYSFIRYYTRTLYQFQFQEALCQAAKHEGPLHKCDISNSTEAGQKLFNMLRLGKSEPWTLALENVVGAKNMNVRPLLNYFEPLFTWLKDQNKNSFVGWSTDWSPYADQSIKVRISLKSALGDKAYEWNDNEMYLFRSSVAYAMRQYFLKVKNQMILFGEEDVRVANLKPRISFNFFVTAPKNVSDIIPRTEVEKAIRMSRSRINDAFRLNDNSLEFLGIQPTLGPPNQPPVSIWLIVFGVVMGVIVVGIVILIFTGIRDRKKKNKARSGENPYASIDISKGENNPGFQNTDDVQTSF
Nature of the data set: BioPrint Profile Panel. The note with it: Non-Kinase Enzyme, read-out: % of specific inhibition. In kind it is biochemical.
Description: as §1

Data set [7] addresses T6, ZAP70 kinase (Homo sapiens, UniProt P43403).
T6 construct: purchased Eurofins Discovery (Cerep) BioPrint Profile Panel
Nature of the data set: BioPrint Profile Panel. The note with it: read-out: % of specific inhibition. In kind it is biochemical.
Description: as §1

Data set [8] in a line: physchem. As to conditions: 25 °C, pH 7.4, aqueous buffer, kinetic from dmso stock, pH 7.4, 4 h.
The target in data set [9] is T7, APJ (apelin) (Homo sapiens, UniProt P35414).
T7 construct: purchased Eurofins Discovery (Cerep) BioPrint Profile Panel
In words: BioPrint Profile Panel. The note with it: Agonist, Receptor, read-out: % of specific inhibition. The data set is classed as binding.
Description: as §1

Data set [10] deals with T8, α2A (Homo sapiens, UniProt P08913).
T8 construct: purchased Eurofins Discovery (Cerep) BioPrint Profile Panel
In words: BioPrint Profile Panel. The note with it: Antagonist, Receptor, read-out: % of specific inhibition. The data set is classed as binding.
Description: as §1

In data set [11] the target is T9, H2 (Homo sapiens, UniProt P25021).
T9 construct: purchased Eurofins Discovery (Cerep) BioPrint Profile Panel
In words: BioPrint Profile Panel. In kind it is binding. The note with it: Antagonist, Receptor, read-out: % of specific inhibition.
Description: as §1

Data set [12] concerns the target T10, NK2 (Homo sapiens, UniProt P21452).
T10 construct: purchased Eurofins Discovery (Cerep) BioPrint Profile Panel
Nature of the data set: BioPrint Profile Panel. In kind it is binding. The note with it: Agonist, Receptor, read-out: % of specific inhibition.
Description: as §1

The test system of data set [13] is Ca2+ channel (verapamil site). In words: BioPrint Profile Panel. The note with it: 10 μM; Antagonist (verapamil site); Ion Channel. In kind it is binding.
Description: as §1

Data set [14] concerns the target T11, 5-HT2C (Homo sapiens, UniProt P28335).
T11 construct: purchased Eurofins Discovery (Cerep) BioPrint Profile Panel
Nature of the data set: BioPrint Profile Panel. As to conditions: Agonist, Receptor, read-out: % of specific inhibition. The data set is classed as binding.
Description: as §1

Data set [15] has as its target T12, M1 (Homo sapiens, UniProt P11229).
T12 construct: purchased Eurofins Discovery (Cerep) BioPrint Profile Panel
In words: BioPrint Profile Panel. In kind it is binding. As to conditions: Antagonist, Receptor, read-out: % of specific inhibition.
Description: as §1

The target in data set [16] is T13, A3 (Homo sapiens, UniProt P0DMS8).
T13 construct: purchased Eurofins Discovery (Cerep) BioPrint Profile Panel
T13 sequence (P0DMS8 whole entry): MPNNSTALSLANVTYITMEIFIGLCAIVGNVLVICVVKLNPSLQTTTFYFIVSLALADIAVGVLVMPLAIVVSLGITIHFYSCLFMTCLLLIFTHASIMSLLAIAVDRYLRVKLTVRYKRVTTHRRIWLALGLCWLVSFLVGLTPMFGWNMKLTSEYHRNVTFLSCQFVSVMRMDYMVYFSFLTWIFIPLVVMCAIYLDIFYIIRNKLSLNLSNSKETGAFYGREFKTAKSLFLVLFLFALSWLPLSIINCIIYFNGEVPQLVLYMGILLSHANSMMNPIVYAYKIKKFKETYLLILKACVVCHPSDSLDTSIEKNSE
In words: BioPrint Profile Panel. The data set is classed as binding. As to conditions: Agonist, Receptor.
Description: as §1

Data set [17] has as its target T14, A2B (Homo sapiens, UniProt P29275).
T14 construct: purchased Eurofins Discovery (Cerep) BioPrint Profile Panel
Nature of the data set: BioPrint Profile Panel. In kind it is binding. The note with it: Antagonist, Receptor.
Description: as §1

Data set [18] addresses T15, D3 (Homo sapiens, UniProt P35462).
T15 construct: purchased Eurofins Discovery (Cerep) BioPrint Profile Panel
In words: BioPrint Profile Panel. In kind it is binding. The note with it: Antagonist, Receptor, read-out: % of specific inhibition.
Description: as §1

In data set [19] the target is T16, Y1 (Homo sapiens, UniProt P25929).
T16 construct: purchased Eurofins Discovery (Cerep) BioPrint Profile Panel
T16 sequence (P25929 whole entry): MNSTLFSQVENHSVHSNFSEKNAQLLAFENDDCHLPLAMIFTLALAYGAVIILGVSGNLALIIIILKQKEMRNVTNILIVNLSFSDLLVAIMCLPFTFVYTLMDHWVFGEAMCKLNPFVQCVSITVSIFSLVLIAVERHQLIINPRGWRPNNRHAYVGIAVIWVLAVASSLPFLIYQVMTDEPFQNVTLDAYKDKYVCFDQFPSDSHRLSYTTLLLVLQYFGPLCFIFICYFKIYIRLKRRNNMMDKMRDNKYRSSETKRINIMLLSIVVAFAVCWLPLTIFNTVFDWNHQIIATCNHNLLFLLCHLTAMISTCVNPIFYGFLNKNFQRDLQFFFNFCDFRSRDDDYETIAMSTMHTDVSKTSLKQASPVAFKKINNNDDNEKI
In words: BioPrint Profile Panel. The data set is classed as binding. The note with it: Agonist, Receptor, read-out: % of specific inhibition.
Description: as §1

Data set [20] deals with ERK1/2 and Akt1. Nature of the data set: Immunoblot, non-differentiated SH-SY5Y cells. The data set is classed as cell-based. The method, then:
The SH-SY5Y cell line was purchased from MilliporeSigma and cultured in growth medium: MEM (w/Earle’s Salts; w/L-Glutamine) + Ham’s F12 (w/L-Glutamine) (1:1 v/v), 1 × Antibiotic-Antimycotic, 1 × MEM Non-Essential Amino Acids (all reagents from Biowest, Riverside, MO, USA) and 15% FBS (Gibco, Thermo Fisher Scientific, Waltham, MA, USA). Cells were passaged using 0.25% Trypsin-EDTA (Biowest) and cultured in standard conditions (5% CO2, 37 °C with 95% relative humidity).
Compound treatment was stopped by lysing cells with N-PER™ Neuronal Protein Extraction Reagent (Thermo Fisher Scientific) containing 1 × PhosSTOP™ (Roche, Basel, Switzerland), 1 × Halt Protease Inhibitor Single-Use Cocktail (ThermoFisher Scientific) and 5 mM EDTA. The lysates were collected by scraping, and centrifuged (8000× g; 10 min at 4 °C), and the protein concentration was determined using a BCA Pierce kit (ThermoFisher Scientific). The lysates were stored at −80 °C until further processing. […] After repeated washes (TBS-T), the proteins were detected with HRP-conjugated anti-rabbit antibodies (1:4000, RT, 2 h) (Cell Signaling Technology), and the blots were incubated with Clarity Max ECL Western Blotting Substrate (Bio-Rad). Blot images and chemiluminescence signals were captured using a ChemiDoc MP Imaging System, and densitometry values were calculated using the Image Lab software (Bio-Rad). […]
Background: A western blot detects proteins with antibodies after separation by electrophoresis.

The target in data set [21] is T17, exTrkB (Homo sapiens, UniProt Q16620).
T17 construct: human TrkB receptor (exTrkB), residues 1−430, was cloned into the pCMV2 expression vector; made in house; host or cells: ExpiCHO-S cells
In words: Ligand-induced exTrkB dimerization assay (native electrophoresis). The data set is classed as biochemical. The note with it: exTrkB:ligand 1:1, non-reducing conditions. The protocol: The native exTrkB, BDNF, and tested compounds were separately diluted with PBS (pH 7.4) to a final concentration of 2.5 μM. Then, exTrkB, BDNF, or the tested compound were mixed (1:1 v/v) and incubated at 25 °C for 10 min, and 2X Sample Buffer (0.6 M Tris, 20% glycerol, 0.02% Bromophenol Blue, pH 6.8) was added to the samples. Afterwards, the samples were loaded into Stain-Free gels (10% Mini-PROTEAN® TGX Stain-Free™ Protein Gels; Bio-Rad, Hercules, CA, USA) and separated in non-reducing conditions using SDS-free electrophoresis buffer (192 mM glycine, 25 mM Tris; pH 8.3). Visualization of the protein bands was performed using a ChemiDoc MP Imaging System (Bio-Rad).

The mark [22] stands for this setting: read-out: % Inhibition of Control Specific Binding.

In brackets after ≈: the same amount, converted by molar mass.

T14 sequence (P29275 whole entry): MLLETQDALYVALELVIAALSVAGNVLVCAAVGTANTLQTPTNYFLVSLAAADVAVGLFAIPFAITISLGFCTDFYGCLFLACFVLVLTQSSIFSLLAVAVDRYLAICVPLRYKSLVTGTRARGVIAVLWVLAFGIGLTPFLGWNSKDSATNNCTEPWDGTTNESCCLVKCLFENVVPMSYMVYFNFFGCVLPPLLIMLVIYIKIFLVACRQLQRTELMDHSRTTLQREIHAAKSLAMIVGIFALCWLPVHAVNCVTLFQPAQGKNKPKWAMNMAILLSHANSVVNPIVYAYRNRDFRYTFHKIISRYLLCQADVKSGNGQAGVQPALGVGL
T6 sequence (P43403 whole entry): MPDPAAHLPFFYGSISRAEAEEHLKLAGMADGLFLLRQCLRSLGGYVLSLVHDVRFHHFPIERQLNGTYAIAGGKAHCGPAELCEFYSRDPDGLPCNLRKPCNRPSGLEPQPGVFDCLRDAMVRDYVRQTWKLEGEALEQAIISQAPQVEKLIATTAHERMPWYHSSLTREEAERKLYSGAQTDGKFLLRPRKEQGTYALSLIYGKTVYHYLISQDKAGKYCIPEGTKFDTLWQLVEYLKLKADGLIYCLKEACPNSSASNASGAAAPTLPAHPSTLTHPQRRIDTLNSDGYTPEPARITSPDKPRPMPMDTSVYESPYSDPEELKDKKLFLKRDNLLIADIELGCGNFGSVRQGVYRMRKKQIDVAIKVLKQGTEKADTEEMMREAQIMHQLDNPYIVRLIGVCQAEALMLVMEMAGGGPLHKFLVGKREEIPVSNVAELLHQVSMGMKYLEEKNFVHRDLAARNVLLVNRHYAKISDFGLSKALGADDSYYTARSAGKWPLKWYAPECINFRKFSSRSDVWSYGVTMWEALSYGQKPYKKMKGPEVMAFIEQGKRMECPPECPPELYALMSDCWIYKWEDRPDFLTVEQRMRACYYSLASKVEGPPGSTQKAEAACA
T15 sequence (P35462 whole entry): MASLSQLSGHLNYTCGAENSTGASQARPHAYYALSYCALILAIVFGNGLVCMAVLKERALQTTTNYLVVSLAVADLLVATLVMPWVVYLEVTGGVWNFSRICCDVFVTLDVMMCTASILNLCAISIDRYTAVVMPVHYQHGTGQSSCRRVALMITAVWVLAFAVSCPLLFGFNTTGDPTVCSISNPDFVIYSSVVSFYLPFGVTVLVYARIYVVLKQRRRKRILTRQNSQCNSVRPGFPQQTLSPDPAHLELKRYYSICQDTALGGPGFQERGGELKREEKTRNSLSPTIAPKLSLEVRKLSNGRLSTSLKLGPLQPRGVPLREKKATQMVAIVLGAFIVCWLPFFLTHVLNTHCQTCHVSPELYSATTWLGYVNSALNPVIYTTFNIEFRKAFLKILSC
T11 sequence (P28335 33-458): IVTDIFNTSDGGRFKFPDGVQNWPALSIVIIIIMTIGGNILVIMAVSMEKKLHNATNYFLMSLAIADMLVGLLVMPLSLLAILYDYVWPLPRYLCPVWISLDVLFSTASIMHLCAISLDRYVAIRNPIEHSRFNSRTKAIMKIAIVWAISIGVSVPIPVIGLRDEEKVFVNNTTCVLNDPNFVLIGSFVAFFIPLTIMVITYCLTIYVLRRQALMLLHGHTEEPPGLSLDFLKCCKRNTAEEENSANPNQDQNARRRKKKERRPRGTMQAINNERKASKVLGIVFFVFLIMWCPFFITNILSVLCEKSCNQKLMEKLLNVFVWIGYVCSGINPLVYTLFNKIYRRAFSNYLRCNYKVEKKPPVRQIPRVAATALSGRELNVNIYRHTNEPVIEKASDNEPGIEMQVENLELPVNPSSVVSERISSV
T10 sequence (P21452 whole entry): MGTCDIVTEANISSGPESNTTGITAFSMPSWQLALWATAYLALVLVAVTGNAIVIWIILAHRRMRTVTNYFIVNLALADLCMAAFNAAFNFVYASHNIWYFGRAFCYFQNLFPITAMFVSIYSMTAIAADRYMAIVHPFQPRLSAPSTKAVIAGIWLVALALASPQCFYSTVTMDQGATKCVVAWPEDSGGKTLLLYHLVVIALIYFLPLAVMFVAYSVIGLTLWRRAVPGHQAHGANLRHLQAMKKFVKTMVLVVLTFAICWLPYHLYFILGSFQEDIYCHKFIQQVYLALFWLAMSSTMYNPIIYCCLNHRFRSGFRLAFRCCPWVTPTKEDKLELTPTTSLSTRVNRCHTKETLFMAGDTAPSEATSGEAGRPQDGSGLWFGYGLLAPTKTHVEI
T4 sequence (P42574 29-175 limits assumed): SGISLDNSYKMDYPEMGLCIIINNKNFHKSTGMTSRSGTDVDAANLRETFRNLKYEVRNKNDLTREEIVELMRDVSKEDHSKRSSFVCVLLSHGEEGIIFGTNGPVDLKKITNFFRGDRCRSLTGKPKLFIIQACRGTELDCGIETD
T4 sequence (P42574 176-277 limits assumed): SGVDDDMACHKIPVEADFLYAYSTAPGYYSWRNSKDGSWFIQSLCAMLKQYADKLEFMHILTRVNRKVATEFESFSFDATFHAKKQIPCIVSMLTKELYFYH
T12 sequence (P11229 whole entry): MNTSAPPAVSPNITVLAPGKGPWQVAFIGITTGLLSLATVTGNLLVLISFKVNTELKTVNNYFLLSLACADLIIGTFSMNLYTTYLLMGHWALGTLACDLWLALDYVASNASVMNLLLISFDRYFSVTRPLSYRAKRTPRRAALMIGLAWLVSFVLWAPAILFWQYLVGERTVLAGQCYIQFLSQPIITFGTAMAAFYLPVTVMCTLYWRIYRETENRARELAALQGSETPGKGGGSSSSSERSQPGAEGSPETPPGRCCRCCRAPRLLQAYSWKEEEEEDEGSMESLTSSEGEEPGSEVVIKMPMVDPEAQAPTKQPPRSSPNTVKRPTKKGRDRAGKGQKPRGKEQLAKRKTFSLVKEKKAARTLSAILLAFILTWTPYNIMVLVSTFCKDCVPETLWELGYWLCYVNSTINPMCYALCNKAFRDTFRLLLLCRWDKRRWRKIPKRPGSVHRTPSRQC

Regarding `O=c1cc(-c2ccccc2)oc2c(O)c(O)ccc12` [7,8-DHF, 7,8-dihydroxyflavone], the inhibition at 10 µM is 38% in data set [1]; 12% in data set [3]; 10% in data set [4]; 1% in [5]; -8% in data set [6]; 4% in [7]. Besides, the inhibition at 10 µM was 4% in data set [9]; -5% in data set [10]; -37% in [11]; -2% in data set [12]; -4% in [14]; -4% in data set [15]. Moreover, the inhibition at 10 µM is 68% in data set [16] (setting [22]), 78% in [17] (setting [22]), 2% in [18] and 8% in data set [19]. The “% of specific inhibition” value in data set [2] and in [13] was 2% in each case. This molecule also yielded a solubility (kinetic) at 4 h in data set [8] of 303 µM (≈ 77 µg/mL). Moreover, the results for the “% Inhibition of Control Specific Binding” value in [16] (10 μM) and in data set [17] (10 μM) were 68.2% and 78.3%, respectively.

As for `C=CC(C)(C)c1[nH]c2ccccc2c1C1=C(O)C(=O)C(c2c[nH]c3c(CC=C(C)C)cccc23)=C(O)C1=O` [DMAQ-B1], in [20], the “Phosphorylation of ERK1/2 and Akt1” value is listed as “significantly induce”.

B1: BDNF: Brain-derived neurotrophic factor, endogenous TrkB receptor agonist (protein, UniProt P23560 19-247, looked up)
Neurotrophic factor BDNF …: APMKEANIRGQGGLAYPGVRTHGTLESVNGPKAGSRGLTSLADTFEHVIEELLDEDQKVRPNEENNKDADLYTSRVMLSSQVPLEPPLLFLLEEYKNYLDAANMSMRVRRHSDPARRGELSVCDSISEWVTAADKKTAVDMSGGTVTVLEKVPVSKGQLKQYFYETKCNPMGYTKEGCRGIDKRHWNSQCRTTQSYVRALTMDSKKRIGWRFIRIDTSCVCTLTIKRGR
B1: in data set [21], the “TrkB Dimerization” value is listed as “YES”.

In general, inhibition refers to the relative decrease from the control value, in per cent. For orientation: kinetic solubility means solubility judged after dilution from a stock solution rather than from solid.

The record behind these values is PMC8398766, “Do Small Molecules Activate the TrkB Receptor in the Same Manner as BDNF? Limitations of Published TrkB Low Molecular Agonists and Screening for Novel TrkB Orthosteric Agonists” (Pharmaceuticals, 2021).
